In brackets after ≈: the same amount, converted by molar mass.
Key:
Bel-7402 = test: Antiproliferative activity against human Bel-7402 cells assessed as cell growth inhibition; type: functional, cell-based
U-937 = test: Antiproliferative activity against human U-937 cells assessed as cell growth inhibition; type: functional, cell-based
[1] = Antiproliferative activity against human 95-D cells assessed as cell growth inhibition; type: functional, cell-based
UMSCC1 = test: Antiproliferative activity against human UMSCC1 cells assessed as cell growth inhibition; type: functional, cell-based
NCI-H460 = test: Antiproliferative activity against human NCI-H460 cells assessed as cell growth inhibition; type: functional, cell-based
NCI-H1299 = test: Antiproliferative activity against human NCI-H1299 cells assessed as cell growth inhibition; type: functional, cell-based
MG-63 = test: Antiproliferative activity against human MG-63 cells assessed as cell growth inhibition; type: functional, cell-based
[2] = Antiproliferative activity against human KU-7 cells assessed as cell growth inhibition; type: functional, cell-based; conditions: KU7
NSCLC = test: Antiproliferative activity against human NSCLC cells assessed as cell growth inhibition; type: functional, cell-based
RCC4 = test: Antiproliferative activity against human RCC4 cells assessed as cell growth inhibition; type: functional, cell-based
Kasumi 1 = test: Antiproliferative activity against human Kasumi 1 cells assessed as cell growth inhibition; type: functional, cell-based
[3] = Antiproliferative activity against human YCC-2 cells assessed as cell growth inhibition; type: functional, cell-based
[4] = Antiproliferative activity against human KATO III stomach cancer cell line assessed as cell growth inhibition; type: functional, cell-based
Cytochrome P450 1A2 [5] = target: T1, Cytochrome P450 1A2 (Rattus norvegicus, UniProt P04799); test: Inhibition of rat CYP1A2
Huh-7 = test: Antiproliferative activity against human Huh-7 cells assessed as cell growth inhibition; type: functional, cell-based
Erysiphales [6] = test: Antifungal activity against powdery mildew assessed as curative effects at 100 ug/ml relative to control; type: functional; conditions: dose 100 µg/ml
HOS = test: Antiproliferative activity against human HOS cells assessed as cell growth inhibition; type: functional, cell-based
NCI-H1975 [7] = test: Antiproliferative activity against gefitinib-resistant human NCI-H1975 cells assessed as cell growth inhibition; type: functional, cell-based
NCI-H1650 = test: Antiproliferative activity against human NCI-H1650 cells assessed as cell growth inhibition; type: functional, cell-based
[8] = Toxicity in wild-type Zebrafish embryos measured after 72 hrs; design: species or system Danio rerio
LP-1 = test: Antiproliferative activity against human LP-1 cells assessed as cell growth inhibition; type: functional, cell-based
HepG2 = test: Antiproliferative activity against human HepG2 cells assessed as cell growth inhibition; type: functional, cell-based
[9] = Antiproliferative activity against human GLC-82 cells assessed as cell growth inhibition; type: functional, cell-based; conditions: GLC82
PC-3 = test: Antiproliferative activity against human PC-3 cells assessed as cell growth inhibition; type: functional, cell-based
Cytochrome P450 2C11 [10] = target: T2, Cytochrome P450 2C11 (Rattus norvegicus, UniProt P08683); test: Inhibition of rat Cyp2c11; type: ADME
MM1.S = test: Antiproliferative activity against human MM1.S cells assessed as cell growth inhibition; type: functional, cell-based
Cytochrome P450 3A2 [11] = target: T3, Cytochrome P450 3A2 (Rattus norvegicus, UniProt P05183); test: Inhibition of rat CYP3A2
RPMI-8226 [12] = test: Antiproliferative activity against doxorubicin resistant human RPMI-8226 cells assessed as cell growth inhibition; type: functional, cell-based
Rhizoctonia solani = test: Antifungal activity against Rhizoctonia solani assessed as inhibition of fungal growth at 10 ug/ml relative to control; type: functional; design: scale not given: the % may be the effect or the level left; conditions: dose 10 µg/ml
DU-145 = test: Antiproliferative activity against human DU-145 cells assessed as cell growth inhibition; type: functional, cell-based
HeLa = test: Antiproliferative activity against human HeLa cells assessed as cell growth inhibition; type: functional, cell-based
[13] = Toxicity in wild-type Zebrafish embryos measured after 48 hrs; design: species or system Danio rerio
LNCaP = test: Antiproliferative activity against human LNCaP cells assessed as cell growth inhibition; type: functional, cell-based
MDA-MB-231 = test: Antiproliferative activity against human MDA-MB-231 cells assessed as cell growth inhibition; type: functional, cell-based
SCC-4 = test: Antiproliferative activity against human SCC-4 cells assessed as cell growth inhibition; type: functional, cell-based
SAOS-2 = test: Antiproliferative activity against human SAOS-2 cells assessed as cell growth inhibition; type: functional, cell-based
[14] = Antiproliferative activity against human Nasopharyngeal carcinoma cell line assessed as cell growth inhibition; type: functional, cell-based
NCI-H2228 = test: Antiproliferative activity against human NCI-H2228 cells assessed as cell growth inhibition; type: functional, cell-based
SK-OV-3 = test: Antiproliferative activity against human SK-OV-3 cells assessed as cell growth inhibition; type: functional, cell-based
MKN-45 = test: Antiproliferative activity against human MKN-45 cells assessed as cell growth inhibition; type: functional, cell-based
[15] = Antiproliferative activity against human SPCA1 cells assessed as cell growth inhibition; type: functional, cell-based
A549 = test: Antiproliferative activity against human A549 cells assessed as cell growth inhibition; type: functional, cell-based
RPMI-8226 [16] = test: Antiproliferative activity against bortezomib resistant human RPMI-8226 cells assessed as cell growth inhibition; type: functional, cell-based
Cytochrome P450 3A2 [17] = target: T3, Cytochrome P450 3A2; test: Binding affinity to rat CYP3A2
U2OS = test: Antiproliferative activity against human U2OS cells assessed as cell growth inhibition; type: functional, cell-based
KBM5 [18] = test: Antiproliferative activity against human KBM5 cells expressing Bcr-Abl harboring T315I mutant assessed as cell growth inhibition; type: functional, cell-based
SCC-38 = test: Antiproliferative activity against human SCC-38 cells assessed as cell growth inhibition; type: functional, cell-based
MKN-28 = test: Antiproliferative activity against human MKN-28 cells assessed as cell growth inhibition; type: functional, cell-based
U-266 = test: Antiproliferative activity against human U-266 cells assessed as cell growth inhibition; type: functional, cell-based
MCF7 = test: Antiproliferative activity against human MCF7 cells assessed as cell growth inhibition; type: functional, cell-based
[19] = Antiproliferative activity against human Renal cancer tumor cell line assessed as cell growth inhibition; type: functional, cell-based
Cytochrome P450 1A2 [20] = target: T1, Cytochrome P450 1A2; test: Binding affinity to rat CYP1A2
[21] = Antiproliferative activity against dog CL-1 cells assessed as cell growth inhibition; type: functional, cell-based; conditions: Canis lupus familiaris
Mus musculus = test: Antiinflammatory activity in po dosed asthmatic mouse model; type: functional
K562 = test: Antiproliferative activity against human K562 cells assessed as cell growth inhibition; type: functional, cell-based
NCI-H929 = test: Antiproliferative activity against human NCI-H929 cells assessed as cell growth inhibition; type: functional, cell-based
[22] = target: UDP-glucuronosyltransferase 1A6 (Homo sapiens, UniProt P19224); test: Binding affinity to UGT1A6 (unknown origin) assessed as inhibition constant
AGS = test: Antiproliferative activity against human AGS cells assessed as cell growth inhibition; type: functional, cell-based
SW13 = test: Antiproliferative activity against human SW13 cells assessed as cell growth inhibition; type: functional, cell-based
U-251 = test: Antiproliferative activity against human U-251MG cells assessed as cell growth inhibition; type: functional, cell-based
[23] = Antiproliferative activity against human U373 MG cells assessed as cell growth inhibition; type: functional, cell-based, U-373MG ATCC
[24] = tested on: Colletotrichum gloeosporioides; test: Antifungal activity against Glomerella cingulata assessed as inhibition of fungal growth at 10 ug/ml relative to control; type: functional; design: scale not given: the % may be the effect or the level left; conditions: dose 10 µg/ml
SK-MEL-28 = test: Antiproliferative activity against human SK-MEL-28 cells assessed as cell growth inhibition; type: functional, cell-based
[25] = Antiproliferative activity against human SKNO-1 cells assessed as cell growth inhibition; type: functional, cell-based
Erysiphales [26] = test: Antifungal activity against powdery mildew assessed as preventive effects at 100 ug/ml relative to control; type: functional; conditions: dose 100 µg/ml
[27] = Antiproliferative activity against human 253J-BV cells assessed as cell growth inhibition; type: functional, cell-based
[28] = target: UDP-glucuronosyltransferase 2B7 (Homo sapiens, UniProt P16662); test: Binding affinity to UGT2B7 (unknown origin) assessed as inhibition constant
NCI-H1975 [29] = test: Antiproliferative activity against human NCI-H1975 cells assessed as cell growth inhibition; type: functional, cell-based
KBM5 [30] = test: Antiproliferative activity against human KBM5 cells assessed as cell growth inhibition; type: functional, cell-based
Cytochrome P450 2C11 [31] = target: T2, Cytochrome P450 2C11; test: Binding affinity to rat Cyp2c11; type: ADME
[32] = Toxicity in wild-type Zebrafish embryos assessed as lethal effect; design: species or system Danio rerio; conditions: in vivo
A2780 = test: Antiproliferative activity against human A2780 cells assessed as cell growth inhibition; type: functional, cell-based
[33] = Antiproliferative activity against human MM1.R cells assessed as cell growth inhibition; type: functional, cell-based; conditions: MM.1R
C3A = test: Antiproliferative activity against human C3A cells assessed as cell growth inhibition; type: functional, cell-based
RPMI-8226 [34] = test: Antiproliferative activity against human RPMI-8226 cells assessed as cell growth inhibition; type: functional, cell-based
HCC827 = test: Antiproliferative activity against human HCC827 cells assessed as cell growth inhibition; type: functional, cell-based
Staphylococcus aureus = test: Antibacterial activity against Staphylococcus aureus assessed as inhibition of bacterial growth; type: functional

T1 sequence (P04799 whole entry): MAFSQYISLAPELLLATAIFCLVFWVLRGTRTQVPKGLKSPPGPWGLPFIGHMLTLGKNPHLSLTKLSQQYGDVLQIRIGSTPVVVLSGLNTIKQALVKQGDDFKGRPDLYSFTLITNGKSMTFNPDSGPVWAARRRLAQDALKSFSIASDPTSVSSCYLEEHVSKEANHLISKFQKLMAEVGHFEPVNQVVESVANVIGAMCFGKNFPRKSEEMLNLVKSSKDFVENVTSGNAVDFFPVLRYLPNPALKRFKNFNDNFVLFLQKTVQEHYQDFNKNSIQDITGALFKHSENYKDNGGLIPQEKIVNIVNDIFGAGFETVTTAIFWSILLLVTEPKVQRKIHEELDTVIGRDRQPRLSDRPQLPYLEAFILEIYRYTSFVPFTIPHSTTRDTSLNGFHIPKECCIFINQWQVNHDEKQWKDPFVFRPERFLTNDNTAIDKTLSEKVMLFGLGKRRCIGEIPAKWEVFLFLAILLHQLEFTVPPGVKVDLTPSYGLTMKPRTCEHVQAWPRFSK
T3 sequence (P05183 whole entry): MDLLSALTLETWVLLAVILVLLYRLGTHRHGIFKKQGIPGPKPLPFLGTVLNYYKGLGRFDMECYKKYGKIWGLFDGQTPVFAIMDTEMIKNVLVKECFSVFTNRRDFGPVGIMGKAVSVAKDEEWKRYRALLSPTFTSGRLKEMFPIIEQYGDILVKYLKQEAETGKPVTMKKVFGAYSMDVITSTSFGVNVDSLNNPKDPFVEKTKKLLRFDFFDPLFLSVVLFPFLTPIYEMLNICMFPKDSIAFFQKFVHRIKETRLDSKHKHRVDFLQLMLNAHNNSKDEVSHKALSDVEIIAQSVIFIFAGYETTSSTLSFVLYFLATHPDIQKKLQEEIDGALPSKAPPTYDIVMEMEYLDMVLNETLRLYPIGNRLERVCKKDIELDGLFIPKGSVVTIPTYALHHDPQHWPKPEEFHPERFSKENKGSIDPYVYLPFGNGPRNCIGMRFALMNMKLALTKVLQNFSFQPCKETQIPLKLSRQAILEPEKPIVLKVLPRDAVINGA
T2 sequence (P08683 whole entry): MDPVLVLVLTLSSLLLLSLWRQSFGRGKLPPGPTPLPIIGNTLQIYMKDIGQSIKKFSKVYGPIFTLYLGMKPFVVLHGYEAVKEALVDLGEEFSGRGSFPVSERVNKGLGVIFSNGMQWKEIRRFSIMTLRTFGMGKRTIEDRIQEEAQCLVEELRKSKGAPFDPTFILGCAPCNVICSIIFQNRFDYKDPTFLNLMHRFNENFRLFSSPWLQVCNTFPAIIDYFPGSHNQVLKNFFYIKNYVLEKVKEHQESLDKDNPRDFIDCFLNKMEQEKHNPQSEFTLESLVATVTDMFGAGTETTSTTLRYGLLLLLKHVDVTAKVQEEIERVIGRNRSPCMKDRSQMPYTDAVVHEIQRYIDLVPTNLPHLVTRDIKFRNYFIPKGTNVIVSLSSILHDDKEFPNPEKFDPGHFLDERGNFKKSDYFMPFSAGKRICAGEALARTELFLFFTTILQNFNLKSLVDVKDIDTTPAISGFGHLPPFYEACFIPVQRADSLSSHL
UDP-glucuronosyltransferase 1A6, sequence (P19224 whole entry): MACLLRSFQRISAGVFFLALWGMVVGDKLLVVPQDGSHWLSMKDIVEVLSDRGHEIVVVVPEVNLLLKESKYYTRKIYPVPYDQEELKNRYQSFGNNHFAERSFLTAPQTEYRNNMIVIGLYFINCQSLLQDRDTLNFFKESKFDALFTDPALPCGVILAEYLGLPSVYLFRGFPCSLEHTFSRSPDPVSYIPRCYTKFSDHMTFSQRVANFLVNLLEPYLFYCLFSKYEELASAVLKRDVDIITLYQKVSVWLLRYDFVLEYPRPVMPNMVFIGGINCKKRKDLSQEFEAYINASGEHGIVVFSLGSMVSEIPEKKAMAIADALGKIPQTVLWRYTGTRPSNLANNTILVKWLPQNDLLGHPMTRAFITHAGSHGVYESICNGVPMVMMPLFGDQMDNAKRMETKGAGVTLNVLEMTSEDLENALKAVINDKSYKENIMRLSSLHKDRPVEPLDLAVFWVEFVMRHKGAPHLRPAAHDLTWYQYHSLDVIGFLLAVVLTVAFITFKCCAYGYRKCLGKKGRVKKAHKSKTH
UDP-glucuronosyltransferase 2B7, sequence (P16662 whole entry): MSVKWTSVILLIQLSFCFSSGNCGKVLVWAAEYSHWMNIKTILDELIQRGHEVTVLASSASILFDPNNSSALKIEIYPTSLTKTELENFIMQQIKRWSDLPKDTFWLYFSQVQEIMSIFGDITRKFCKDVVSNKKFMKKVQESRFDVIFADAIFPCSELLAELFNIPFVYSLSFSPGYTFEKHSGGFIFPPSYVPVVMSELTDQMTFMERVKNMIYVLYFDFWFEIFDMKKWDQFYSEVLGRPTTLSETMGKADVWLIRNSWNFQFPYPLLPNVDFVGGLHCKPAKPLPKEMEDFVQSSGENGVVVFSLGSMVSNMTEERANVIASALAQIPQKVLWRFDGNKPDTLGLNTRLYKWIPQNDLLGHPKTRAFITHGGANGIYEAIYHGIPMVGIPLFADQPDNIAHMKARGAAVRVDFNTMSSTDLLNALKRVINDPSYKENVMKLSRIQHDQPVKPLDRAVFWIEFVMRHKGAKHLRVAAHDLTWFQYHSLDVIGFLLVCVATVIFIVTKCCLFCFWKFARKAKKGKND

Question: With `COC(=O)[C@]1(C)CC[C@]2(C)CC[C@]3(C)C4=CC(c5c[nH]c6cc(C)ccc56)c5c(cc(OC)c(OC)c5C)[C@]4(C)CC[C@@]3(C)[C@@H]2C1` (stereo partly drawn) as the molecule, how does the IC50 (Bel-7402) read?
Answer: The IC50 was 20 nM.

Question: With `COC(=O)[C@]1(C)CC[C@]2(C)CC[C@]3(C)C4=CC(c5cn(C)c6cc(Cl)ccc56)c5c(cc(OC)c(OC)c5C)[C@]4(C)CC[C@@]3(C)[C@@H]2C1` (stereo partly drawn) as the molecule, how does the IC50 (Bel-7402) read?
Answer: The IC50 was 10 nM.

Question: What does the source list for `CC1=C(O)C(=O)C=C2C1=CC=C1[C@@]2(C)CC[C@@]2(C)[C@@H]3C[C@](C)(C(=O)O)CC[C@]3(C)CC[C@]12C` [CELASTROL]?
Answer: IC50 (U-937): 2000 nM; IC50 [1]: 1800 nM; IC50 (UMSCC1): 760 nM; IC50 (NCI-H460): 2200 nM; IC50 (NCI-H1299): 1490 nM; IC50 (MG-63): 1970 nM; IC50 [2]: 1130 nM; IC50 (NSCLC): 1480 nM; IC50 (RCC4): 1880 nM; IC50 (Kasumi 1): 2200 nM; IC50 [3]: 500 nM; IC50 [4]: 540 nM; IC50 (Cytochrome P450 1A2 [5]): 52800 nM; IC50 (Huh-7): 4700 nM; Activity (Erysiphales [6]): 45.4%; IC50 (HOS): 2550 nM; IC50 (NCI-H1975 [7]): 600 nM; IC50 (NCI-H1650): 790 nM; EC50 at 72 h [8]: 700 nM; IC50 (LP-1): 880 nM; IC50 (HepG2): 2400 nM; IC50 [9]: 1080 nM; IC50 (PC-3): 1520 nM; IC50 (Cytochrome P450 2C11 [10]): 10200 nM; IC50 (MM1.S): 630 nM; IC50 (Cytochrome P450 3A2 [11]): 23200 nM; IC50 (RPMI-8226 [12]): 520 nM; Activity (Rhizoctonia solani): 62.6%; IC50 (DU-145): 1480 nM; IC50 (HeLa): 1900 nM; EC50 at 48 h [13]: 900 nM; IC50 (LNCaP): 1760 nM; IC50 (MDA-MB-231): 670 nM; IC50 (SCC-4): 2800 nM; IC50 (SAOS-2): 1050 nM; IC50 [14]: 1000 nM; IC50 (NCI-H2228): 1950 nM; IC50 (SK-OV-3): 2290 nM; IC50 (MKN-45): 3400 nM; IC50 [15]: 1800 nM; IC50 (A549): 1990 nM; IC50 (RPMI-8226 [16]): 730 nM; Ki (Cytochrome P450 3A2 [17]): 14200 nM; IC50 (U2OS): 2110 nM; IC50 (KBM5 [18]): 520 nM; IC50 (SCC-38): 1700 nM; IC50 (MKN-28): 2300 nM; IC50 (U-266): 470 nM; IC50 (MCF7): 1580 nM; IC50 [19]: 4400 nM; Ki (Cytochrome P450 1A2 [20]): 39200 nM; IC50 [21]: 1540 nM; LD50 (Mus musculus): 20.5 mg/kg; IC50 (K562): 400 nM; IC50 (NCI-H929): 310 nM; Ki [22]: 490 nM; IC50 (AGS): 250 nM; IC50 (SW13): 100 nM; IC50 (U-251): 690 nM; IC50 [23]: 2000 nM; Activity [24]: 62.6%; IC50 (SK-MEL-28): 1720 nM; IC50 [25]: 1300 nM; Activity (Erysiphales [26]): 80.5%; IC50 [27]: 930 nM; Ki [28]: 45 nM; IC50 (NCI-H1975 [29]): 1660 nM; IC50 (KBM5 [30]): 500 nM; Ki (Cytochrome P450 2C11 [31]): 7050 nM; LC50 [32]: 1400 nM; IC50 (A2780): 2110 nM; IC50 [33]: 520 nM; IC50 (C3A): 3600 nM; IC50 (RPMI-8226 [34]): 520 nM; IC50 (HCC827): 1300 nM; MIC (Staphylococcus aureus): 0.5 µg/mL (≈ 1.11 µM)
